This note sets out measurements from ChEMBL document CHEMBL5360661, “Structure-Activity Relationship Study of 1H-Pyrrole-3-carbonitrile Derivatives as STING Receptor Agonists” (ACS Med Chem Lett, 2023).

Experiment [1] deals with T1, Stimulator of interferon genes protein (Mus musculus) (UniProt Q3TBT3).
T1 sequence (whole entry): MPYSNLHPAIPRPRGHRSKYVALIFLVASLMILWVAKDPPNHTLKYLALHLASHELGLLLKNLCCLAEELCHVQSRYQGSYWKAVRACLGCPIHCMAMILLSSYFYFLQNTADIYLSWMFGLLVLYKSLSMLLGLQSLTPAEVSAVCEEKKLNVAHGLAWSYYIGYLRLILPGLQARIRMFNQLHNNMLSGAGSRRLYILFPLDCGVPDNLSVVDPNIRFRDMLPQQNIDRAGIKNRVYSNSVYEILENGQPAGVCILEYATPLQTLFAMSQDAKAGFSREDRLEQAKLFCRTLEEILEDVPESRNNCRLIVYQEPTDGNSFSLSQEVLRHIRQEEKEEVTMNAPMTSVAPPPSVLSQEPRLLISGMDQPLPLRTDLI
The experiment in a line: Binding affinity to recombinant 6-His tagged mouse STING C-terminal domain (144 to 378 residues) expressed in Escherichia coli BL21 (DE3) cells assessed as thermal stabilization by measuring change in melting temperature at 50 uM incubated at 25 to 95 degreeC for 45 mins by SYPRO orange dye based fluorescence analysis.

The target in experiment [2] is T2, Stimulator of interferon genes protein (Mus musculus, UniProt Q3TBT3).
T2 sequence (Q3TBT3 whole entry): T1 sequence (whole entry)
The experiment in a line: Competitive inhibition of 5-FAM labelled diABZI binding to recombinant 6-his tagged mouse STING C-terminal domain (144 to 378 residues) expressed in Escherichia coli BL21 (DE3) cells incubated for 10 mins by fluorescence polarization assay. For orientation: In fluorescence polarisation assays a small probe gives low polarisation when free and higher when bound to something large.

Experiment [3] is described as follows: Competitive inhibition of 5-FAM labelled diABZI binding to recombinant human STING R293Q variant C-terminal domain (139 to 378 residues) expressed in Escherichia coli BL21 (DE3) cells incubated for 10 mins by fluorescence polarization assay.
Experiment [4] can be described thus: Competitive inhibition of 5-FAM labelled diABZI binding to recombinant human STING R232H variant C-terminal domain (139 to 378 residues) expressed in Escherichia coli BL21 (DE3) cells incubated for 10 mins by fluorescence polarization assay.
The species entered for experiment [5] is Homo sapiens. Nature of the experiment: Binding affinity to recombinant human STING R232H variant C-terminal domain (139 to 378 residues) expressed in Escherichia coli BL21 (DE3) cells assessed as thermal stabilization by measuring change in melting temperature at 50 uM incubated at 25 to 95 degreeC for 45 mins by SYPRO orange dye based fluorescence analysis.

The nature of experiment [6]: Competitive inhibition of 5-FAM labelled diABZI binding to recombinant human STING G230A and R293Q variant C-terminal domain (139 to 378 residues) expressed in Escherichia coli BL21 (DE3) cells incubated for 10 mins by fluorescence polarization assay.
Experiment [7] is filed under the species Homo sapiens. The experiment in a line: Binding affinity to recombinant human STING G230A and R293Q variant C-terminal domain (139 to 378 residues) expressed in Escherichia coli BL21 (DE3) cells assessed as thermal stabilization by measuring change in melting temperature at 50 uM incubated at 25 to 95 degreeC for 45 mins by SYPRO orange dye based fluorescence analysis.

Experiment [8] is filed under the species Homo sapiens. Nature of the experiment: Binding affinity to recombinant human STING R293Q variant C-terminal domain (139 to 378 residues) expressed in Escherichia coli BL21 (DE3) cells assessed as thermal stabilization by measuring change in melting temperature at 50 uM incubated at 25 to 95 degreeC for 45 mins by SYPRO orange dye based fluorescence analysis.

In experiment [9] the target is T3, Stimulator of interferon genes protein (Homo sapiens, UniProt Q86WV6). The experiment in a line: Agonist activity at STING in PMA-differentiated wildtype human THP1-Blue ISG cells harboring IRF-inducible SEAP reporter construct incubated for 24 hrs by QUANTI-Blue assay. Format: cell-based.
Target sequence in this assay (Q86WV6 whole entry, the tested form may be a part): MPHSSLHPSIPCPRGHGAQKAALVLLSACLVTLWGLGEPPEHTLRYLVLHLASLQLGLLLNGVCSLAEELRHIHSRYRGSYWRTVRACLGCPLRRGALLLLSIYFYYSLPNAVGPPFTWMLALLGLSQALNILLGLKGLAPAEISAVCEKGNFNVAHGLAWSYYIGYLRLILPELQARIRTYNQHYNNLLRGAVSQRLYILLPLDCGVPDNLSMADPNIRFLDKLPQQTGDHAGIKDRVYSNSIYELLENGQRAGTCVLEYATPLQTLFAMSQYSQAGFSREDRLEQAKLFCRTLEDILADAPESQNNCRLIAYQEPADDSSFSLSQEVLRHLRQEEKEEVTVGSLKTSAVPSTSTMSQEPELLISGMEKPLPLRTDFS
In experiment [10] the test system is Stimulator of interferon genes protein (Homo sapiens), Q86WV6 [UNDEFINED MUTATION]. Nature of the experiment: Binding affinity to recombinant wildtype human STING R232 variant C-terminal domain (139 to 378 residues) expressed in Escherichia coli BL21 (DE3) cells assessed as thermal stabilization by measuring change in melting temperature at 50 uM incubated at 25 to 95 degreeC for 45 mins by SYPRO orange dye based fluorescence analysis.
Sequence of Stimulator of interferon genes protein (Homo sapiens), Q86WV6 [UNDEFINED MUTATION] (Q86WV6 whole entry, looked up, stated change not applied, the tested form may be a part): as the sequence (Q86WV6 whole entry, the tested form may be a part) above

For experiment [11], the target named is T3, Stimulator of interferon genes protein. The experiment in a line: Competitive inhibition of 5-FAM labelled diABZI binding to recombinant wildtype human STING R232 variant C-terminal domain (139 to 378 residues) expressed in Escherichia coli BL21 (DE3) cells incubated for 10 mins by fluorescence polarization assay.
Target sequence in this assay (Q86WV6 whole entry, looked up, stated change not applied, the tested form may be a part): as the sequence (Q86WV6 whole entry, the tested form may be a part) above

With `O=C(Nc1cc(F)c(F)cc1C(=O)O)c1ccc(-n2ccnc2)nn1`, the ΔTm (as a rule, the change in melting temperature against a reference sample) was 10 °C in experiment [1], 8.5 °C in experiment [5], 14 °C in experiment [7] and 7.5 °C in experiment [8]. Further, the half-inhibitory concentration (IC50) (usually the concentration that inhibits the measured activity by half) in experiment [2] is 2.2 µM; in experiment [3], 5.54 µM; in experiment [4] it was 4.89 µM; in experiment [6], 0.73 µM.

Consider `N#Cc1ccn(-c2ccc(C(=O)Nc3cc(C#CC4CC4)c(F)cc3C(=O)O)nn2)c1`, for which the ΔTm in experiment [5] was -0.5 °C. For the same compound, the 50% effective concentration (EC50) – broadly, the concentration giving half of the maximal effect – in [9] came to 69.8 µM.

As for `Cc1cc(NC(=O)c2ccc(-n3ccc(C#N)c3)nn2)c(C(=O)O)cc1F`, the shift in melting temperature (ΔTm) in [5] came out at 1.5 °C. The half-maximal effective concentration (EC50) in experiment [9] was 46 µM.

On to `N#Cc1ccn(-c2ccc(C(=O)Nc3cc(Cl)c(F)cc3C(=O)O)nn2)c1`, for which, in [5], the ΔTm was found to be 6.5 °C. In addition, the EC50 in experiment [9] is 5.17 µM.

On to `N#Cc1ccn(-c2ccc(C(=O)Nc3cc(F)c(Cl)cc3C(=O)O)nn2)c1`, for which the shift in melting temperature (ΔTm) in experiment [5] was 1.5 °C. This compound also came in with a concentration for a half-maximal effect (EC50) in experiment [9] of 42.2 µM.

With `COc1cc(NC(=O)c2ccc(-n3ccc(C#N)c3)nn2)c(C(=O)O)cc1F`, the thermal shift (ΔTm) in [5] worked out at 4 °C. The compound further displayed a half-maximal effective concentration (EC50) in experiment [9] of 9.75 µM.

Consider `N#Cc1ccn(-c2ccc(C(=O)Nc3cc(Br)c(Cl)cc3C(=O)O)nn2)c1`, for which the thermal shift (ΔTm) stood at 7 °C in [1]; 8.5 °C in experiment [5]; 13.5 °C in [7]; 6.5 °C in experiment [10]; 7.5 °C in [8]. Further, the concentration for half-maximal inhibition (IC50) in experiment [2] was 4.36 µM; in experiment [3], 2.03 µM; in experiment [4], 3.58 µM; in experiment [6], 0.7 µM; in experiment [11], 1.98 µM. The compound also returned a concentration for a half-maximal effect (EC50) in experiment [9] of 2.53 µM.

Take `N#Cc1ccn(-c2ccc(C(=O)Nc3cc(F)c(Br)cc3C(=O)O)nn2)c1`: the ΔTm in experiment [5] came out at 1 °C. The EC50 in [9] is 44.2 µM.

In the case of `COc1cc(C(=O)O)c(NC(=O)c2ccc(-n3ccc(C#N)c3)nn2)cc1F`, in experiment [5], the ΔTm worked out at 0 °C. This compound registered an EC50 in experiment [9] of 44.3 µM.

Turning to `N#Cc1ccn(-c2ccc(C(=O)Nc3cc(C4CC4)c(F)cc3C(=O)O)nn2)c1`, the thermal shift (ΔTm) in experiment [5] is 1 °C. Also, in experiment [9], the EC50 amounted to 29.5 µM.

Take `N#Cc1ccn(-c2ccc(C(=O)Nc3cc(Cl)c(Cl)cc3C(=O)O)nn2)c1`: the ΔTm came to 6.5 °C in experiment [1]; 7.5 °C in experiment [5]; 13.5 °C in experiment [7]; 6 °C in experiment [10]; 7.5 °C in [8]. Besides, the IC50 was 4.58 µM in experiment [2]; 2.56 µM in [3]; 2.77 µM in experiment [4]; 0.76 µM in [6]; 2.42 µM in experiment [11]. This compound also displayed an EC50 in experiment [9] of 2.99 µM.

For the compound `N#Cc1ccn(-c2ccc(C(=O)Nc3cc(Br)c(Br)cc3C(=O)O)nn2)c1`, in [5], the shift in melting temperature (ΔTm) is 6.5 °C. Further, in experiment [9], the EC50 stood at 6.33 µM.

For `N#Cc1ccn(-c2ccc(C(=O)Nc3cc(Cl)c(Br)cc3C(=O)O)nn2)c1`, in experiment [5], the shift in melting temperature (ΔTm) was 6.5 °C. Further, the EC50 in experiment [9] was 5.11 µM.

Regarding `CCCn1c(NC(=O)c2cc(C)nn2C)nc2cc(C(N)=O)cc(OC3COC3)c21`, the ΔTm in experiment [1] amounted to 5.5 °C; in [5] it was 6 °C; in experiment [7] it was 5 °C; in experiment [10], 4.5 °C; in [8], 5.5 °C. The IC50 in [2] amounted to 3.75 µM; in experiment [3], 3.82 µM; in [4] it was 2.78 µM; in [6], 3.66 µM; in experiment [11] it was 3.16 µM.

With `C=Cc1cc(NC(=O)c2ccc(-n3ccc(C#N)c3)nn2)c(C(=O)O)cc1F`, the ΔTm in experiment [5] amounted to 4.5 °C. In experiment [9], this compound came in with a 50% effective concentration (EC50) of 19.8 µM.

Consider `N#Cc1ccn(-c2ccc(C(=O)Nc3cc(F)ccc3C(=O)O)nn2)c1`, for which the thermal shift (ΔTm) in [5] was determined as 0 °C. Also, a half-maximal response in experiment [9] (EC50) required 48.1 µM.

In the case of `N#Cc1ccn(-c2ccc(C(=O)Nc3ccc(F)cc3C(=O)O)nn2)c1`, in experiment [5], the ΔTm is 0.5 °C. The compound further gave a 50% effective concentration (EC50) in experiment [9] greater than 100 µM.

As to `CCc1cc(C(=O)O)c(NC(=O)c2ccc(-n3ccc(C#N)c3)nn2)cc1F`, the ΔTm in experiment [5] came out at 0.5 °C. Moreover, a half-maximal response in [9] (EC50) required 34.9 µM.

As to `N#Cc1ccn(-c2ccc(C(=O)Nc3cc(F)c(F)cc3C(=O)O)nn2)c1`, the ΔTm in experiment [5] was determined as 3.5 °C.

In the case of `N#Cc1ccn(-c2ccc(C(=O)Nc3cc(Br)c(F)cc3C(=O)O)nn2)c1`, the ΔTm in [5] was 6 °C. In addition, in experiment [9], the EC50 worked out at 4.86 µM.

As for `CC#Cc1cc(NC(=O)c2ccc(-n3ccc(C#N)c3)nn2)c(C(=O)O)cc1F`, the ΔTm in [5] was 0.5 °C. The compound also returned an EC50 in experiment [9] of 35 µM.
